Source: patent US20240368120A1 (Terns Pharmaceuticals, Inc., priority 2023, published 2024)

Key:
[1] = target: T1, human GLP-1R receptor (Homo sapiens, UniProt P43220); experiment: GLP-1R low expression cell assay (cAMP TR-FRET, CHO-K1_hGLP-1Rlow_clone10 cells); format: cell-based; conditions: for EC50: cAMP TR-FRET, 30 min at 25° C.; for Emax: maximum activation relative to control GLP-1 peptide agonist
T1 construct: expressed in transfected cells
Outline: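 Readout is cAMP TR-FRET after 30 min compound stimulation at 25 °C of a low-GLP-1R-expressing CHO-K1 clone (1,000 cells/well), with 10-point 3-fold serial dilutions. Percent activation versus a control GLP-1 peptide, from duplicates, was Hill-fitted to give EC50.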

[2] = Rat pharmacokinetics, oral dosing; format: in vivo, Sprague-Dawley rats; conditions: male, Sprague-Dawley, oral dosing at 3 mg/kg, plasma; for half-life: read-out: Rat T1/2

T1 sequence (P43220 24-463): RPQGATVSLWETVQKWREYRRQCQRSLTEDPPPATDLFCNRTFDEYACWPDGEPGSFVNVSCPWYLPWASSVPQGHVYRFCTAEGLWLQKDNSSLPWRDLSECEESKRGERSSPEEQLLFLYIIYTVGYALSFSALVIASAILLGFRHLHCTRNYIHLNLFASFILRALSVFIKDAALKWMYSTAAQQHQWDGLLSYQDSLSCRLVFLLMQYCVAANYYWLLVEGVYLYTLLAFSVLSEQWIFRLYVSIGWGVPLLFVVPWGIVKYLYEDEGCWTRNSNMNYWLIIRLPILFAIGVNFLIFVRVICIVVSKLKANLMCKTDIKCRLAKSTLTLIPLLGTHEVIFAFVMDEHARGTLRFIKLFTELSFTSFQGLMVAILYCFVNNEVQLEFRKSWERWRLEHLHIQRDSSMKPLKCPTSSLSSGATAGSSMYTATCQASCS

EC50 [1] [nM]	Emax [1] [%]	AUC [2] [ng·h/mL]	Cmax [2] [ng/mL]	half-life [2] [h]	bioavailability [2] [%]	SMILES
10 to 100	> 85	< 500	< 500	≥ 2.5	25 to 50	Cn1c(CN2CCC(c3cccc(OCc4ccc(Cl)cc4F)n3)CC2)nc2c(O)cc(C(=O)O)cc21 [Compound 307, 2-((4-(6-((4-Chloro-2-fluorobenzyl)oxy)pyridin-2-yl)piperidin-1-yl)methyl)-4-hydroxy-1-methyl-1H-benzo[d]imidazole-6-carboxylic acid]
< 10	> 85	2500 to 10000	1000 to 2000	1.5 to 2.5	50 to 85	COc1cc(C(=O)O)cc2c1nc(CN1CCC(c3cccc(OCc4ccc(C#N)cc4F)n3)CC1)n2C [Compound 308, 2-((4-(6-((4-Cyano-2-fluorobenzyl)oxy)pyridin-2-yl)piperidin-1-yl)methyl)-4-methoxy-1-methyl-1H-benzo[d]imidazole-6-carboxylic acid]
–	> 85	< 500	< 500	≥ 2.5	< 25	COCCOc1cc(C(=O)O)cc2c1nc(CN1CCC(c3cccc4c3O[C@@](C)(c3ccc(Cl)cn3)O4)CC1)n2C [Compound 309, (S)-2-((4-(2-(5-Chloropyridin-2-yl)-2-methylbenzo[d][1,3]dioxol-4-yl)piperidin-1-yl)methyl)-4-(2-methoxyethoxy)-1-methyl-1H-benzo[d]imidazole-6-carboxylic acid]
